Results as given in article PMC9406419, “OATD-02 Validates the Benefits of Pharmacological Inhibition of Arginase 1 and 2 in Cancer” (Cancers, 2022).

Test system: CT26 tumours
Test: Syngeneic CT26 model, combination with epacadostat and anti-PD-L1 antibody
Type: in vivo, mouse
Details: suboptimal doses: OATD-02 50 mg/kg PO BID; epacadostat 30 mg/kg PO BID; anti-PD-L1 2.5 mg/kg IP days 8, 10, 12, 14, 16
Description: CT26 and K562 in vivo experiments were conducted at Molecure SA. All experimental procedures were approved by the 1st Local Ethics Committee in Warsaw (Poland). For the syngeneic CT26 model, 7–8-week old BALB/c females (n = 9–18 per group, BALB/cAnNCrl, Charles River Laboratories) were injected subcutaneously in the right flank with 5 × 10^5 CT26 cells. […] Anti-PD-L1 antibody (InVivoPlus anti-mouse PD-L1, clone 10F.9G2, BioXCell, lot 615416D1) was injected intraperitoneally at 2.5 mg/kg on days: 8, 10, 12, 14 and 16 post tumour cells inoculation. Control groups received vehicle (saline) or isotype antibody (InVivoPlus rat IgG2b, anti-KLH, BioXCell, lot 629816D1). For the xenograft K562 model, 7–8 week-old athymic nude mice (n = 8–11 per group, Crl:NU(NCr)-Foxn1^nu, Charles River Laboratories) or NK cell-deficient Fox Chase SCID Beige mice (n = 10–12 per group, CB17.Cg-Prkdc^scidLyst^bg-J/Crl, Charles River Laboratories) were injected subcutaneously in the right flank with 1 × 10^7 K562 cells. […] Tumour volume measured by a digital calliper (width × length × depth × π/6) was recorded three times per week. Animals were euthanized when tumours were necrotized or volume exceeded 2000 mm^3. Renca in vivo efficacy study was performed at Crown Biosciences Inc. (Taicang, China). […] Tumour volumes (length × width^2 × 0.5) were measured twice per week. […]

## NS(=O)(=O)NCCNc1nonc1C(=NO)Nc1ccc(F)c(Br)c1 [epacadostat, reference compound]
  TGI, CT26 tumor growth inhibition - day 24: 41%
